Measurements as given in publication PMC11249646, “Small-Molecule Disruptors of the Interaction between Calcium- and Integrin-Binding Protein 1 and Integrin αIIbβ3 as Novel Antiplatelet Agents” (ACS Pharmacology & Translational Science, 2024).
Converted amounts (≈) assume the structure as drawn. Where two headings read alike, the source gives them in different places.

Columns and labels:
[1] = biological target: T1, CIB1 and αIIb interaction (CIB1-GST : F-αIIb peptide) (Homo sapiens, UniProt Q99828); assay: FP assay, 1536-well qHTS format (primary and confirmatory screen); type: binding; conditions: for Confirm? (confirmatory screen): YES/NO
T1 construct: made in house; host or cells: BL-21 plus RIL cells (E. coli)
T1 sequence (Q99828 1-191): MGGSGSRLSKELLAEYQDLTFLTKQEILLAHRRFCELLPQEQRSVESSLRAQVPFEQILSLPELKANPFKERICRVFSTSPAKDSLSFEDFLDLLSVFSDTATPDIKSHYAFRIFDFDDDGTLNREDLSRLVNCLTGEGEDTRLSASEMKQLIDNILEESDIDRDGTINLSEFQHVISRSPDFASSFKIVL

washed human platelets = assay: Human platelet aggregation assay (thrombin-induced); type: cell-based; conditions: for inhibition at 10 µM: Homo sapiens, Platelet, single concentration of 10 μM (n = 3), thrombin; for Thrombin Assay 10 µM (%): platelet aggregation inhibition at 10 µM
Description: A classical challenge in target-based drug discovery is moving from biochemical to cellular assay and the essential step of determining if the compounds of interest can perform in a cellular context. After characterization of the compounds in a series of biochemical assay formats, our next step was to assess their activity in a cellular environment. Our previous studies have shown that the interaction of the cytoplasmic domain of integrin αIIbβ3, a key regulator of platelet aggregation, with CIB1, is involved in downstream signaling in platelet activation and aggregation. We sought to determine whether our candidate compounds were inhibiting this interaction by evaluating them for platelet function in a human platelet aggregation assay. We prepared platelet-rich plasma (PRP) and washed the platelets as previously described[44] and then performed a platelet aggregation assay using the washed platelet suspensions (2 × 10^8/platelets/mL) followed by the recording of aggregation traces (see Materials and Methods Section). To induce platelet aggregation, 0.03 U/mL of thrombin, a physiological agonist of platelet activation, was used.
Figure 6 Effect of compounds on human platelet activation. Representative platelet aggregation tracings of washed human platelet suspensions pretreated for 30 min at 37 °C with vehicle (DMSO) or compounds at indicated concentrations followed by activation with thrombin (0.03–0.1 U/mL). Panel (A): NCGC00071855. Panel (B–D): NCGC00351170. Panel (E): CD62P exposure was in the presence of NCGC00351170. Data represents mean ± SEM, n = 4 individual experiments; ns = non significant *P < 0.05, ***P < 0.001, ****P < 0.0001.
Whole blood was drawn by venipuncture from healthy adult volunteers (of both gender and race) with informed consent. Approval was obtained from the institutional review boards of Thomas Jefferson University, according to the Declaration of Helsinki. Blood was collected in acidified citrate dextrose as an anticoagulant. Platelet-rich plasma (PRP) and washed platelets were prepared, as previously described.[44] Platelet aggregation was performed using washed platelet suspensions containing 2 × 10^8 platelets/mL using a Chrono-Log Lumi-Aggregometer (Chrono-Log), as described previously.[11] Aggregation traces were recorded by using Aggrolink software (Chrono-Log). Thrombin-induced P-selectin (CD62P) exposure was performed using Accuri C6 flowcytometer (BD Bioscience) as described previously.[11]
Figure S9: Effect of compounds on human platelet activation. Representative platelet aggregation
tracings of washed human platelet suspensions treated with vehicle (DMSO) or indicated
compounds at 10 μM for 30 minutes at 37 °C followed by activation with thrombin (0.03U/mL).

[2] = biological target: T2, CIB1 and αIIb interaction (GST-CIB1 : F-αIIb peptide) (Homo sapiens, UniProt Q99828); assay: FP assay, 384-well format (screen); type: binding; conditions: 384-well FP assay
T2 construct: made in house; host or cells: BL-21 plus RIL cells (E. coli)
T2 sequence (Q99828 1-191): T1 sequence (Q99828 1-191)

[3] = In vitro ADME: solubility; type: physicochemical
[4] = In vitro ADME: PAMPA permeability
[5] = biological target: T3, GST-CIB1 : F-scrambled peptide (Homo sapiens, UniProt Q99828); assay: FP scrambled-peptide counter screen, 1536-well format; type: binding; conditions: for Curve Class (counterscreen): negative sign = inhibitory curve; for Efficacy (%) (counterscreen) / Curve Class (counterscreen) / IC50: counterscreen; for IC50: read-out: IC50 [μM] (counterscreen)
T3 construct: made in house; host or cells: BL-21 plus RIL cells (E. coli)
T3 sequence (Q99828 1-191): T1 sequence (Q99828 1-191)

[6] = qHTS primary screen hits, Table S2, negative = inhibition
[7] = qHTS primary screen hits, Table S2, read-out: IC50
[8] = Table 1, read-out: FP assay IC50
[9] = confirmatory screen, qHTS curve class, negative sign = inhibitory curve
[10] = confirmatory screen, read-out: IC50 [μM] (confirmatory screen)
[11] = qHTS primary screen hits, Table S2, negative sign = inhibitory curve, several classes where COUNT > 1
[12] = qHTS FP screen hits, Table S2, negative = inhibition
[13] = qHTS FP screen hits, Table S2, read-out: IC50

Compound | Efficacy (%) [1, 6] [%] | IC50 [1, 7] [µM] | inhibition at 10 µM (washed human platelets) [%] | Thrombin Assay 10 µM (%) (washed human platelets) | IC50 [2, 8] [µM] | solubility ([3]; read-out: Solubility) [µg/mL] | Papp [4] [×10⁻⁶ cm/s] | Efficacy (%) (confirmatory screen) ([1]; confirmatory screen) | Confirm? (confirmatory screen) ([1]; confirmatory screen) | Curve Class (confirmatory screen) [1, 9] | IC50 [1, 10] [µM] | Efficacy (%) (counterscreen) [5] | Curve Class (counterscreen) ([5]; qHTS curve class) | IC50 [5] [µM] | also measured
O=C(c1ccc(F)cc1)c1no[n+]([O-])c1C(=O)c1ccc(F)cc1 [NCGC00351162-02] | -58 | 26.6 | 97 | 97 | 7.5 | 34 (≈ 103 µM) |  |  |  |  |  |  |  |  | IC50 ([2]; log of IC50 in M (negative values), read-out: FP Assay LOG IC50 (converted)): 7.41 µM
O=C(c1ccccc1)c1no[n+]([O-])c1C(=O)c1ccccc1 [NCGC00351168-02] | -49 | 25.1 | 97 | 97 | 7.85 | 26 (≈ 88.4 µM) | 2 | -54 | YES | -2.2 | 31.6 | -34 | -1.4 | 25.1 | Curve Class [1, 11]: -1.2
Cc1ccccc1C(=O)c1no[n+]([O-])c1C(=O)c1ccccc1C.O=C(O)C(F)(F)F [NCGC00351166-01] | -19 | 31.6 | 77 | 77 | 4.26 | 2 | < 1 |  |  |  |  |  |  |  | CONFIRMATORY SCREEN Confirm? ([1]; confirmatory screen, YES/NO call): YES; CONFIRMATORY SCREEN Curve Class [1, 9]: -1.4; CONFIRMATORY SCREEN Efficacy (%) ([1]; confirmatory screen, negative = inhibition): -39%; IC50 ([1]; confirmatory screen, read-out: CONFIRMATORY SCREEN IC50): 12.6 µM; Curve Class [1, 11]: -2.4; COUNTERSCREEN Efficacy (%) ([5]; scrambled-peptide counterscreen): -24%; COUNTERSCREEN Confirm? ([5]; scrambled-peptide counterscreen, YES/NO call): YES; COUNTERSCREEN Curve Class ([5]; scrambled-peptide counterscreen, qHTS curve class): 4
O=C(O)C(F)(F)F.O=C(c1cccs1)c1no[n+]([O-])c1C(=O)c1cccs1 [NCGC00071855-05] | -48 | 11.6 |  |  |  | 18 | 187 |  |  |  |  |  |  |  | Curve Class [1, 11]: -1.2
O=C(c1cccs1)c1no[n+]([O-])c1CO [NCGC00354607-01] |  |  | 14 | 14 |  | 23 (≈ 102 µM) | 130 |  |  |  |  |  |  |  | 
O=C(c1ccccc1)c1no[n+]([O-])c1C(=O)c1ccccc1 [NCGC00351168-01] |  |  |  |  |  |  |  |  |  |  |  |  |  |  | PAMPA [4]: < 1 10-6 cm/s; solubility [3]: > 43 µg/mL
COc1ccc(C(=O)c2no[n+]([O-])c2C(=O)c2ccc(OC)cc2)cc1.O=C(O)C(F)(F)F [NCGC00064079-03] |  |  | 99 | 99 | 4.53 | 9 | 285 | -37 | YES | -1.4 | 6.3 | -30 | -1.4 | 3.2 | Efficacy (%) [1, 12]: -27%; IC50 [1, 13]: 8.9 µM
O=C(c1cccs1)c1no[n+]([O-])c1C(=O)c1cccs1 [NCGC00071855-06] |  |  |  |  |  |  |  |  |  |  |  |  |  |  | PAMPA [4]: 153 10-6 cm/s; solubility [3]: 14 µg/mL (≈ 45.7 µM)
O=C(c1cccc(OCc2ccccc2)c1)c1no[n+]([O-])c1C(=O)c1cccc(OCc2ccccc2)c1 [NCGC00351160-01] |  |  | 49 | 49 | 20.7 | 5 (≈ 9.87 µM) | 5.74 |  |  |  |  |  |  |  | 
O=C(c1ccc(C(F)(F)F)cc1)c1no[n+]([O-])c1C(=O)c1ccc(C(F)(F)F)cc1 [NCGC00351164-01] |  |  | 98 | 98 | 7.26 | > 64 | 11 |  |  |  |  |  |  |  | 
Cc1ccc(C(=O)c2no[n+]([O-])c2C(=O)c2ccc(C)cc2)cc1.O=C(O)C(F)(F)F [NCGC00351163-01] |  |  | 96 | 96 | 6.68 | 12 |  | -51 | YES | -1.4 | 5.6 | -36 | -1.2 | 4 | Efficacy (%) [1, 12]: -47%; Curve Class ([1]; qHTS FP screen hits, Table S2, one class per curve where COUNT > 1, negative sign = inhibitory curve): -1.2; IC50 [1, 13]: 11.2 µM
O=C(O)C(F)(F)F.O=C(c1ccc(F)cc1)c1no[n+]([O-])c1C(=O)c1ccc(F)cc1 [NCGC00351162-01] |  |  |  |  |  | > 49 | 6.01 | -69 | YES | -1.2 | 12.6 | -68 | -2.2 | 35.5 | 
